{"source": "patent US10829495B2", "about": "“Thieno-pyrimidine derivatives and uses thereof” (ZHEJIANG JIANFENG-YIEN BIOTECHNOLOGY CO., LTD., priority 2015, dated 2020)", "key": {"EGFR T790M": {"biological_target": "EGFR T790M (Homo sapiens, UniProt P00533, T790M)", "sequence (P00533 25-1210 T790M)": "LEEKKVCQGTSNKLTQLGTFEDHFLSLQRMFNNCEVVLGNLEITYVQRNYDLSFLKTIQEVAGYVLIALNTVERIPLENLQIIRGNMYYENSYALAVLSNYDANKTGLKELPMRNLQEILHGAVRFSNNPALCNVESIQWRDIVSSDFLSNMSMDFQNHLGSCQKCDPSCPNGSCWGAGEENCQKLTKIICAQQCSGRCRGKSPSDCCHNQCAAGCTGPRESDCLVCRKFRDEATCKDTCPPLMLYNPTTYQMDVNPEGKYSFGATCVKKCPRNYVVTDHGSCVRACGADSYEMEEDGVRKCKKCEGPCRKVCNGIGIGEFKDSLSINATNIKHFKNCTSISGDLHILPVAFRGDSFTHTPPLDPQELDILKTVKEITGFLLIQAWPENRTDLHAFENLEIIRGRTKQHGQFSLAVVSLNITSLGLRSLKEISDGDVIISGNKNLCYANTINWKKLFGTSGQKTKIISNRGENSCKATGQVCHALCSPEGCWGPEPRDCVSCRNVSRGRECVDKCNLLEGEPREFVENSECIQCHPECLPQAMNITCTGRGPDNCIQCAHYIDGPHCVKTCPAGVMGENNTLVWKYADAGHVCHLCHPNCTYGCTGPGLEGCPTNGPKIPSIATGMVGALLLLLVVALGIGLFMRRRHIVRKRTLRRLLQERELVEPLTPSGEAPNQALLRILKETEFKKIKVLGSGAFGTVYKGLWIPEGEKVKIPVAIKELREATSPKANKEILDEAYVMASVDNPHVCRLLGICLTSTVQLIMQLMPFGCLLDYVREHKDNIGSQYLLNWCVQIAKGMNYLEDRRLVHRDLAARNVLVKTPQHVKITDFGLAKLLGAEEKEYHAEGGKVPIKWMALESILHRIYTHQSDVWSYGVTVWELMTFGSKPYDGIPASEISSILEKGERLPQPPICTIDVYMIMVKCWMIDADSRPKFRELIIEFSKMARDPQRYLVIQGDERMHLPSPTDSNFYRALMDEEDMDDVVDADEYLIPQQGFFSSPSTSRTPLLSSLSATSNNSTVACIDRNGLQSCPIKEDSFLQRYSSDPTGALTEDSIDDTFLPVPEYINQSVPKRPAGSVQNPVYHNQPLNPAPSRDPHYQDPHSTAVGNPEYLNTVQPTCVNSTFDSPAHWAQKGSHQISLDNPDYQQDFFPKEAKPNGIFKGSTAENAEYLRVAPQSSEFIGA", "test": "EGFR enzyme assay", "assay_type": "biochemical", "conditions": "T790M mutant", "method": "The following TABLE II lists compounds representative of the invention and their activity in EGFR assays. In these assays, the following grading was used: A: <0.1 μM; B: 0.1-10 μM."}, "NCI-H1975 cells": {"tested_on": "NCI-H1975 cells", "test": "Efficacy studies in tumor bearing mice (NCI-H1975 xenograft)", "assay_type": "in vivo", "conditions": "female nu/nu mice, subcutaneous NCI-H1975 tumors, orally at 40 mg/kg daily", "method": "2. Efficacy Studies in Tumor Bearing Mice:\nFemale nu/nu mice were implanted with 1×10^7 NCI-H1975 cells in 50% Matrigel subcutaneously in the flank. Tumors were pair matched with a group size of 10 mice. Test compound was administrated orally at 40 mg/kg daily."}}, "data": [{"smiles": "C=CC(=O)Nc1cc(Nc2nc(-c3cn(C(C)C)c4ccccc34)c3sccc3n2)c(OC)cc1N(C)CCN(C)C", "note": "[Compound 3, N-[2-[2-(dimethylamino)ethyl-methyl-amino]-5-[[4-(1-isopropylindol-3-yl)thieno[3,3-d]pyrimidin-2-yl]amino]-4-methoxy-phenyl]prop-2-enamide]", "values": [{"measurement": "IC50", "setting": "EGFR T790M", "result": "< 100", "unit": "nM"}]}, {"smiles": "C=CC(=O)Nc1cc(Nc2nc(-c3cn(C)c4ccccc34)c3sccc3n2)c(OC)cc1N(C)CCN(C)C", "note": "[Compound 1, N-[2-[2-(dimethylamino)ethyl-methyl-amino]-4-methoxy-5-[[4-(1-methylindol-3-yl)thieno[3,2-d]pyrimidin-2-yl]amino]phenyl]prop-2-enamide]", "values": [{"measurement": "IC50", "setting": "EGFR T790M", "result": "< 100", "unit": "nM"}, {"measurement": "Tumor growth inhibition (%)", "setting": "NCI-H1975 cells", "result": ">75", "unit": "%"}]}, {"smiles": "C=CC(=O)Nc1cc(Nc2nc(-c3cn(C)c4ccc(OC)cc34)c3sccc3n2)c(OC)cc1N(C)CCN(C)C", "note": "[Compound 6, N-[2-[2-(dimethylamino)ethyl-methyl-amino]-4-methoxy-5-[[4-(5-methoxy-1-methyl-indol-3-yl)thieno[3,2-d]pyrimidin-2-yl]amino]phenyl]prop-2-enamide]", "values": [{"measurement": "IC50", "setting": "EGFR T790M", "result": "< 100", "unit": "nM"}]}, {"smiles": "C=CC(=O)Nc1cc(Nc2nc(-c3cn(C(C)(C)C)c4ccccc34)c3sccc3n2)c(OC)cc1N(C)CCN(C)C", "note": "[Compound 4, N-[5-[[4-(1-tert-butylindol-3-yl)thieno[3,2-d]pyrimidin-2-yl]amino]-2-[2-(dimethylamino)ethyl-methyl-amino]-4-methoxy-phenyl]prop-2-enamide]", "values": [{"measurement": "IC50", "setting": "EGFR T790M", "result": "100 to 10000", "unit": "nM"}]}, {"smiles": "C=CC(=O)Nc1cc(Nc2nc(-c3cn(C)c4ccc(C)cc34)c3sccc3n2)c(OC)cc1N(C)CCN(C)C", "note": "[Compound 5, N-[2-[2-(dimethylamino)ethyl-methyl-amino]-5-[[4-(1,5-dimethylindol-3-yl)thienol[3,2-d]pyrimidin-2-yl]amino]-4-methoxy-phenyl]prop-2-enamide]", "values": [{"measurement": "IC50", "setting": "EGFR T790M", "result": "< 100", "unit": "nM"}]}, {"smiles": "C=CC(=O)Nc1cc(Nc2nc(-c3cn(C)c4cc(OC)ccc34)c3sccc3n2)c(OC)cc1N(C)CCN(C)C", "note": "[Compound 7, N-[2-[2-(dimethylamino)ethyl-methyl-amino]-4-methoxy-5-[[4-(6-methoxy-1-methyl-indol-3-yl)thieno[3,2-d]pyrimidin-2-yl]amino]phenyl]prop-2-enamide]", "values": [{"measurement": "IC50", "setting": "EGFR T790M", "result": "100 to 10000", "unit": "nM"}]}, {"smiles": "C=CC(=O)Nc1cc(Nc2nc(-c3cn(CC)c4ccccc34)c3sccc3n2)c(OC)cc1N(C)CCN(C)C", "note": "[Compound 2, N-[2-[2-(dimethylamino)ethyl-methyl-amino]-5-[[4-(1-ethylindol-3-yl)thieno[3,2-d]pyrimidin-2-yl]amino]-4-methoxy-phenyl]prop-2-enamide]", "values": [{"measurement": "IC50", "setting": "EGFR T790M", "result": "< 100", "unit": "nM"}, {"measurement": "Tumor growth inhibition (%)", "setting": "NCI-H1975 cells", "result": ">75", "unit": "%"}]}, {"smiles": "C=CC(=O)Nc1cc(Nc2nc(-c3cn(C)c4cc(C)ccc34)c3sccc3n2)c(OC)cc1N(C)CCN(C)C", "note": "[Compound 8, N-[2-[2-(dimethylamino)ethyl-methyl-amino]-5-[[4-(1,6-dimethylindol-3-yl)thieno[3,2-d]pyrimidin-2-yl]amino]-4-methoxy-phenyl]prop-2-enamide]", "values": [{"measurement": "IC50", "setting": "EGFR T790M", "result": "< 100", "unit": "nM"}]}]}
